SMILES strings stand for the structures. Like-named read-outs stand apart in the source and are kept apart here. Marks after values point to notes of the source that are not given here.

For one data set, the system named is UUO mice. In words: UUO study: Sirius red staining, kidney fibrosis area. Format: in vivo. The procedure:
Histopathological analysis: To visualize collagen deposition, kidney sections were stained using picro-Sirius red solution. For quantification of interstitial fibrosis area, bright field images in the corticomedullary region were captured using a digital camera at 200-fold magnification, and the positive areas in 5 fields/section were measured.

Another data set concerns rats. As to conditions: 28-day dose ranging study; cited from earlier work.
The test system of another data set is NAFLD patients. From the text:
Safety Assessments included the following: medical history; physical examination; ECG; vital signs; clinical laboratory safety tests (e.g., hematology, serum biochemistry, coagulation, lipid profile, and urinalysis); virology; pregnancy test; blood sampling; pharmacokinetic sampling; exploratory blood collection; biomarker blood collection; urine DOA and alcohol breath test; adverse event assessment; concomitant medication; bioanalysis; sample, storage, handling; and shipping; and restrictions. A detailed description of each is provided below.
AEs were recorded in the case report form, defining relationship to IMP and severity.
SAE: If a patient experienced a serious adverse event after the first dose of the study drug, the event was recorded as a SAE. A SAE is characterized as an untoward medical occurrence at any dose to include any of the following: results in death, is life threatening, requires in-patient hospitalization or prolongation of existing hospitalization, or results in persistent or significant disability/incapacity. The term “life-threatening” refers to an event in which the patient was at risk of death at the time of the event.
Safety Analysis: Demographic, medical history and physical examination data were listed for each patient and summarized descriptively. All AEs recorded during the study were coded to system organ class and preferred terms using the current version of the Medical Dictionary for Regulatory Activities (MedDRA). AEs were tabulated and summarized by treatment, relationship to treatment, seriousness and severity. Clinical laboratory values (e.g., hematology, biochemistry, and urinalysis) were listed for each patient by treatment and day. Values outside the laboratory normal ranges were listed separately with associated comments as to their clinical significance, with potentially clinically significant abnormalities highlighted and summarized by treatment. Clinical laboratory values obtained prior to dosing were defined as baseline values. Alcohol breath test and DOA test results were listed for each patient. Individual values of vital signs were listed and summarized descriptively for each treatment and day. 12 lead ECG assessments were listed for each patient with all associated comments and summarized by treatment and day. Concomitant medications (if any), categorized by medication group and subgroup according to the latest version of the World Health Organization drug dictionary, were listed and summarized by treatment. In general, appropriate descriptive statistics according to the nature of the variable were applied. Categorical variables were presented using counts and percentage, whilst continuous variables were presented using mean, standard deviation, median, minimum, maximum, coefficient of variation and number of patients.

Data set [1] deals with Sprague Dawley rats. Put plainly: 26 week rat toxicity study: hematology. It counts as in vivo. As to conditions: male rats, 26 weeks. The procedure:
(§1) The test and control items were administered to the appropriate animals by once daily oral gavage 7 days a week for a minimum of 26 weeks. The volume for each animal was based on the most recent body weight measurements. The doses were given using a syringe with attached gavage cannula. The first day of dosing was designated as Day 1. The dosing formulations were removed from the refrigerator and stirred for at least 30 minutes before dosing. The dosing formulations were also stirred continuously during dosing.
Sample Collection: Blood was collected via the tail vein unless immediately prior to necropsy, when blood was collected from the orbital sinus under non-recoverable isoflurane anesthesia. Blood was collected in ascending animal order unless samples were collected prior to necropsy where the order of euthanasia was followed. Additional blood samples were obtained (e.g., due to clotting of non-serum samples) if permissible sampling frequency and blood volume were not exceeded. After collection, samples were transferred to the appropriate laboratory for processing. Samples were collected according to the following table.
Hematology: A 0.5 mL blood sample was collected using the anticoagulant K2EDTA. Blood smears were labelled, stained, and stored. The blood smears were analyzed according to the following parameters.
Animals: The study used male and female Sprague Dawley rats purchased from Charles River UK Limited (Margate, Kent, UK). The target age at the initial dosing was 7-8 weeks. The target weight at the initial dosing was 175-300 g (males) and 120-250 g (females). Each animal was identified using a subcutaneously implanted electronic cylindrical, “glass-sealed” TROVAN microchip.

For data set [2], the system named is Sprague Dawley rats. In words: 26 week rat toxicity study: tolerability, clinical signs. It counts as in vivo. As to conditions: 6 g/kg/day oral gavage, replaced with 3 g/kg/day. Here is the method:
as §1
Due to the onset of clinical signs, including hunched posture, erect fur and abnormal gait and body weight loss, animals 3206M, 3515F and 3703F were given a dosing holiday from Day 45 and remaining Group 3 animals were given a dosing holiday from Day 48. Animals will start dosing at the lower dose level (3000 mg/kg/day) from Day 64. The following tables illustrate the treatments (Table 22) and animal groupings (Table 23) that were used in the study.
Mortality/moribundity checks were made daily. […] Animals were not removed from the cage during observation, unless necessary for identification or confirmation of possible findings.
Post-dose observations were made regularly throughout the day. […] The onset, intensity, and duration of these signs were recorded; particular attention was paid to the animals during and for the first hour after dosing.

Where [3] appears, read: 6000/3000 mg/kg/day oral gavage.

As for `CC/C=C\C[C@H](O)/C=C/C=C\C/C=C\C/C=C\CCCC(=O)OCC` [DS102, 15(S)-hydroxy-(5Z,8Z,11Z,13E,17Z)-eicosapentaenoic acid ethyl ester], in the data set with UUO mice (50 mg/kg PO QD Day 0-13, Day 14, median), the “Sirius red-positive area (%)_Median” value came out at 4.19 ± 3.33%. Also, the “Sirius red-positive area (%)_Median” value in the data set with UUO mice (500 mg/kg PO QD Day 0-13, Day 14, median) turned out to be 3.08 ± 1.16%. The “oral maximum tolerated dose (MTD)” value in the data set on rats is 6 g/kg/day. Besides, in the data set on NAFLD patients (1 g DS102 (n = 32)), the “AEs leading to treatment discontinuation” value is 0 n (%), the Death is on record as 0 n (%), the “Patients with ≥1 AE” value was 19 (59.4) n (%) and the “Patients with ≥1 AE related to study drug” value is recorded as 2 (6.3) n (%). Moreover, in the data set on NAFLD patients (1 g DS102 (n = 32)), the “Patients with ≥1 SAE” value is given as 0 n (%) and the “SAEs related to drug study” value is recorded as 0 n (%). In the data set on NAFLD patients (2 g DS102 (n = 30)), the “AEs leading to treatment discontinuation” value is listed as 0 n (%), the Death is recorded as 0 n (%), the “Patients with ≥1 AE” value is reported as 15 (50.0) n (%) and the “Patients with ≥1 AE related to study drug” value was 3 (10.0) n (%). In addition, in the data set on NAFLD patients (2 g DS102 (n = 30)), the “Patients with ≥1 SAE” value was 1 (3.3) n (%) and the “SAEs related to drug study” value was 0 n (%). In addition, the safety and tolerance result with NAFLD patients (NAFLD patients, 1 g or 2 g per day, 16 weeks, compared to placebo) was “safe and well tolerated”. Also, in the data set on Sprague Dawley rats [1] (2000 mg/kg/day oral gavage), the “Red Cell Distribution Width (RDW), Mean” value was 13.91** %; the “Red blood cell count (RBC), Mean” value is 8.67 10^12/L; the “Reticulocyte count (RETIC), Mean” value is 1.546e+11 L⁻¹. Besides, in the data set with Sprague Dawley rats [1] (setting [3]), the “Red Cell Distribution Width (RDW), Mean” value was 13.60** %; the “Red blood cell count (RBC), Mean” value is listed as 8.81** 10^12/L; the “Reticulocyte count (RETIC), Mean” value is 141.46** 10^9/L. For the same compound, the “tolerability of the highest dose” value in the data set on Sprague Dawley rats [2] is “not well tolerated”.

The record behind these values is patent publication US20240299328A1, “COMPOSITIONS COMPRISING 15-HEPE AND METHODS OF TREATING AND/OR PREVENTING HEMATOLOGIC DISORDERS AND RELATED DISEASES” (Afimmune Limited, priority 2023, published 2024).
